The test system of data set [1] is ex-vivo adult zebrafish hearts. Kind of data set: Cardiotoxicity, ex vivo adult zebrafish hearts. As to conditions: frequency spectral analysis of heart beating. On the procedure: A xenotransplantation model for GBM in zebrafish was developed to test the capacity of the 17 hits to prevent tumor formation in vivo. Three thousand U3013MG GSCs labeled with cell tracker red were injected intracranially into the ventricle of 48-52 hpf larvae. Each of the 17 hits were administered to the egg water at the lowest effective in vitro cytotoxic concentration identified and tumor development assessed 10 days later. This assay allowed rapid evaluation of the compounds in an in vivo setup, features such as the acute/chronic toxicity effect of the compounds on zebrafish and the transplanted cells, transplanted cell proliferation and migration of cells into brain parenchyma, compounds penetrance into the zebrafish tissue were all parallely evaluated. […] Cardiovascular toxicity was assessed using a recently established model based on frequency spectral analysis of heart beating in ex-vivo adult zebrafish hearts (Kitambi et al., (2012) BMC Physiol. 12, 3).
A zebrafish model was used to assess the developmental and cardiac toxicity of advanced hits from the screen. […] The embryos were monitored every day and allowed to grow for 5 days before the phenotype was recorded. […] Adult hearts from male zebrafish were exposed to compounds and the effect on the heart beat was recorded and analysed using developed methods (Kitambi et al., (2012) BMC Physiol. 12, 3).

The subject of the next data set is human fibroblasts. Briefly: Viability (ATP) of fibroblasts in presence of S10. The format is cell-based. The note with it: Fibroblast. As to the method:
The ability of Examples S1-S23 to selectively induce cytotoxicity in glioma/glioblastoma cancer cells or glioma/glioblastoma cancer stem cells was determined by quantification of ATP production in glioma stem cell line U3013 in the presence of using CellTiterGlo reagent (Promega). Cells were exposed to compound in serial dilution in the range 1 nM to 50 µM for 24 hours and viability assessed with respect to negative control (dmso, no cell death) and positive control (staurosporine, full cell death). […] The EC50 of S10 remained largely similar at 2, 3 and 4 days of incubation. […] The individual isomers (S21-S23) of racemic S10 were evaluated in order to determine the enantiospecific pharmacology of the individual isomers.
(§1) For measuring cell viability, cytotoxicity and apoptosis in GSC/fibroblast/mGlia cells were grown in 384-well microtiter plates using procedure described above. […] Cell viability, cytotoxcity and apoptosis were measured using CellTiter-Glo® Luminescent Cell Viability Assay (Promega), CytoTox-Glo Cytotoxicity Assay and […], according to manufacturer's instructions. […] Luminescence was measured using a Victor3 FA (Perkin Elmer) microtiterplate reader and the level of released Caspase 3/7 quantified relative to control using GraphPad Prism (v6.02) software.

The subject of the next data set is Caspase-3 and Caspase-7. Kind of data set: Caspase-3 and Caspase-7 enzymatic activity in GSC. The note with it: 5-30 μM, 2 to 600 minutes. The format is cell-based, human. On the procedure: A distinctive feature of apoptosis is the rapid loss of ATP associated with decoupling of the respiratory chain. Death of GSCs was therefore examined in the presence of the apoptosis inhibitor Q-VAD. […] However, Q-VAD only modestly rescued S10 treated cells from death at 3 and 7 hrs. […] Caspase-3 and Caspase-7 enzymatic activity was measured at 2, 15, 30, 60, 120, 120, 240, 360 and 600 minutes after addition of S10 at increasing concentrations from 5-30 μM. […] The rapid depletion of ATP by S10 led us to therefore examine the mitochondria. The accumulation of tetramethylrhodamine ethyl ester (TMRE) in mitochondria and […] is driven by their membrane potential. TMRE incorporation in mitochondria was largely unaffected by S10. […]
as §1

A further data set relates to zebrafish embryos. The note with it: in vivo. On the procedure:
To assess the selectivity of compounds on mixed cultures consisting of GSC with other cell types, a hanging drop-based mixed culture procedure was developed. U3013MG GSCs were labeled with a cell tracker red and fibroblasts with a cell tracker green fluorescent dye for co-cultures to assess selective effects on glioma cells (glioblastoma) in a mixed culture setting. Cells organized in layers in the absence of compounds.
A zebrafish model was used to assess the developmental and cardiac toxicity of advanced hits from the screen. For the developmental toxicity experiment, zebrafish embryos at one-cell stage were distributed into a 96 well plate (3 embryos per well in 200 μl of egg water) and exposed to DMSO as a control or various concentration of compounds. The egg water (with or without compound) was replaced every 6 hrs and the embryos were allowed to grow for three days. The embryos were monitored every day and allowed to grow for 5 days before the phenotype was recorded. For the cardiotoxicity assay, an ex vivo culture of adult hearts was performed according to our previously published procedure (Kitambi et al., (2012) BMC Physiol. 12, 3). Adult hearts from male zebrafish were exposed to compounds and the effect on the heart beat was recorded and analysed using developed methods (Kitambi et al., (2012) BMC Physiol. 12, 3).

For data set [2], the system named is glioma stem cell line U3013. Kind of data set: In vitro cancer cell and CSC viability assay (ATP quantification, CellTiterGlo). The class given is cell-based. The note with it: Homo sapiens; 3000 cells/cm2, after 24 hours; read-out: EC50, viability of GSCs. (In general: Cellular ATP, detected with luciferase, serves as a proxy for viable cell number.)

The term EC50 denotes the concentration at which the effect is half-maximal. Consider `OC(c1cc(-c2ccc(Cl)cc2)nc2ccccc12)C1CCCCN1` (racemic) [Compound S10, (2-(4-chlorophenyl)quinolin-4-yl)(piperidin-2-yl)methanol], for which, in data set [1], the “cardiac toxicity, heart beating” value was “small or no effects”. Also, the concentration for a half-maximal effect (EC50) in the data set on human fibroblasts (after 24 hrs) came to 18.7 µM; in the data set with human fibroblasts (at 96 hours), 23 µM; in data set [2], 2.36 µM. Moreover, in the data set on Caspase-3 and Caspase-7, the “caspase activity relative to DMSO control” value is on record as “no effect on caspase activity”. Further, the “effect on zebrafish development” value with zebrafish embryos was “did not exert any effect of zebrafish development”.
